Drawing on patent US11566002B2, “Substituted tetrahydrocyclopenta[C]pyrroles, substituted dihydropyrrolizines, analogues thereof, and methods using same” (priority 2018, dated 2023), this text covers EC50 for 22 compounds.

SMILES strings stand for the structures.

One experiment concerns HBV rcDNA. Nature of the experiment: HepDE19 assay with bDNA quantitation of HBV rcDNA. The class given is cell-based, hepatitis B virus. As to conditions: HepDE19 cells, Tet-free medium, 7 day-incubation, rcDNA measured by Quantigene 2.0 bDNA assay, top concentration 25 μM; read-out: DE-19 bDNA EC50. An outline of the steps:
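HepDE19 cells (50,000/well) switched to Tet-free medium, then treated 7 days at 37° C with compounds from 25 μM (½-log, 8-point, duplicate; 0.5% DMSO). rcDNA quantified by bDNA with HBV probes; EC50/EC90 by 4-parameter fit. CC50 from CTG ATP on 5,000 cells/well after 4 days.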
As usually defined, the EC50 is the concentration at which the effect is half-maximal. Consider `Cn1cc2c(c1C(=O)Nc1ccc(F)c(Cl)c1)CCC2NC(=O)OCc1n[nH]nc1C1CC1` (single isomer, unassigned) [Compound 147, (5-Cyclopropyl-2H-1,2,3-triazol-4-yl)methyl (1-((3-chloro-4-fluorophenyl)carbamoyl)-2-methyl-2,4,5,6-tetrahydrocyclopenta[c]pyrrol-4-yl)carbamate], for which the EC50 came out at 3600 nM.

For `Cn1cc2c(c1C(=O)Nc1ccc(F)c(Cl)c1)CCC2NC(=O)OCc1ccccn1` (stereo not shown) [Compound 2, pyridin-2-ylmethyl (1-((3-chloro-4-fluorophenyl)carbamoy1)-2-methyl-2,4,5,6-tetrahydrocyclopenta[c]pyrrol-4-yl)carbamate], the half-maximal effective concentration (EC50) is 260 nM.

`Cn1cc2c(c1C(=O)Nc1ccc(F)c(Cl)c1)CCC2NC(=O)OCc1ccccn1` (stereo not shown) [Compound 6]: the concentration giving a half-maximal response (EC50) stood at 140 nM.

For `Cn1cc2c(c1C(=O)Nc1ccc(F)c(Cl)c1)CCC2NC(=O)OCc1ccccn1` (stereo not shown) [Compound 7, pyridin-2-ylmethyl(1-((3-chloro-4-fluorophenyl)carbamoy1)-2-methyl-2,4,5,6-tetrahydrocyclopenta[c]pyrrol-4-yl)carbamate], the EC50 was 1400 nM.

`Cn1cc2c(c1C(=O)Nc1ccc(F)c(Cl)c1)CCCCC2N` (stereo not shown) [Compound 87, 4-Amino-N-(3-chloro-4-fluorophenyl)-2-methyl-2,4,5,6,7,8-hexahydro cyclohepta[c]pyrrole-1-carboxamide]: the 50% effective concentration (EC50) came out at 1600 nM.

On to `Cn1cnc(COC(=O)NC2CCc3c2c(C(F)(F)F)n(C)c3C(=O)Nc2ccc(F)c(Cl)c2)n1` (stereo not shown) [Compound 122], for which the EC50 was 450 nM.

As to `Cn1cnc(COC(=O)NC2CCc3c2c(C(F)(F)F)n(C)c3C(=O)Nc2ccc(F)c(Cl)c2)n1` (stereo not shown) [Compound 123], the EC50 was found to be 8000 nM.

Turning to `Cn1nnc(COC(=O)NC2CCc3c2cn(C)c3C(=O)Nc2ccc(F)c(Cl)c2)n1` (stereo not shown) [Compound 142, (2-Methyl-1H-tetrazol-5-yl)methyl (1-((3-chloro-4-fluorophenyl)carbamoyl)-2-methyl-2,4,5,6-tetrahydrocyclopenta[c]pyrrol-4-yl)carbamate], the half-maximal effective concentration (EC50) was determined as 3200 nM.

As to `Cn1nnc(COC(=O)NC2CCc3c2cn(C)c3C(=O)Nc2ccc(F)c(Cl)c2)n1` (stereo not shown) [Compound 143, (2-Methyl-1H-tetrazol-5-yl)methyl(1-((3-chloro-4-fluorophenyl)carbamoyl)-2-methyl-2,4,5,6-tetrahydrocyclopenta[c]pyrrol-4-yl)carbamate], the 50% effective concentration (EC50) was determined as 70 nM.

The same experiment, now with this note: Hepatitis B virus, HepDE19, 168 h, HepDE19 cells, Tet-free medium, 7 day-incubation, rcDNA measured by Quantigene 2.0 bDNA assay, top concentration 25 μM; read-out: DE-19 bDNA EC50.
As to `COC(=O)NC1CCc2c1c[nH]c2C(=O)Nc1ccc(F)c(Cl)c1` (stereo not shown) [Compound 9, methyl 1-(3-chloro-4-fluorophenylcarbamoyl)-2,4,5,6-tetrahydrocyclopenta[c]pyrrol-4-ylcarbamate], the half-maximal effective concentration (EC50) is 3000 nM.

`CCn1cc2c(c1C(=O)Nc1ccc(F)c(Cl)c1)CCC2NS(=O)(=O)C1CC1` (stereo not shown) [Compound 12, N-(3-Chloro-4-fluorophenyl)-4-(cyclopropanesulfonamido)-2-ethyl-2,4,5,6-tetrahydrocyclopenta[c]pyrrole-1-carboxamide]: the EC50 worked out at 260 nM.

Consider `CCn1cc2c(c1C(=O)Nc1ccc(F)c(Cl)c1)CCC2NC(=O)C1CC1` (stereo not shown) [Compound 18, N-(3-Chloro-4-fluorophenyl)-4-(cyclopropanecarboxamido)-2-ethyl-2,4,5,6-tetrahydro cyclopenta[c]pyrrole-1-carboxamide], for which the concentration giving a half-maximal response (EC50) worked out at 350 nM.

On to `Cn1cc2c(c1C(=O)Nc1ccc(F)c(Cl)c1)CCC2=O` [Compound 44, N-(3-chloro-4-fluorophenyl)-2-methyl-4-oxo-2,4,5,6-tetrahydrocyclopenta[c]pyrrole-1-carboxamide], for which the EC50 amounted to 19000 nM.

On to `Cn1cc2c(c1C(=O)Nc1ccc(F)c(Cl)c1)CCCC2=O` [Compound 45, N-(3-chloro-4-fluorophenyl)-2-methyl-4-oxo-4,5,6,7-tetrahydro-2H-isoindole-1-carboxamide], for which the EC50 came to 70 nM.

For `Cn1cc2c(c1C(=O)Nc1ccc(F)c(Cl)c1)CCC2NC(=O)OCc1ccn(C2CCCCO2)n1` (stereo not shown) [Compound 63, (1-(Tetrahydro-2H-pyran-2-yl)-1H-pyrazol-3-yl)methyl (1-((3-chloro-4-fluorophenyl)carbamoyl)-2-methyl-2,4,5,6-tetrahydrocyclopenta[c]pyrrol-4-yl)carbamate], the EC50 is 140 nM.

Consider `Cn1cc2c(c1C(=O)Nc1ccc(F)c(Cl)c1)CCCCC2=O` [Compound 72, N-(3-chloro-4-fluorophenyl)-2-methyl-4-oxo-2,4,5,6,7,8-hexahydrocyclohepta[c]pyrrole-1-carboxamide], for which the EC50 stood at 50 nM.

In the case of `Cn1cc2c(c1C(=O)Nc1ccc(F)c(Cl)c1)CCCCC2N` (stereo not shown) [Compound 80, 4-Amino-N-(3-chloro-4-fluorophenyl)-2-methyl-2,4,5,6,7,8-hexahydro cyclohepta[c]pyrrole-1-carboxamide], the 50% effective concentration (EC50) was found to be 1850 nM.

As for `Cn1c(C(=O)Nc2ccc(F)c(Cl)c2)c2c(c1C1CC1)C(NC(=O)OCc1nc[nH]n1)CC2` (stereo not shown) [Compound 95, (1H-1,2,4-triazol-3-yl)methyl (1-((3-chloro-4-fluorophenyl)carbamoy1)-3-cyclopropy1-2-methyl-2,4,5,6-tetrahydrocyclopenta[c]pyrrol-4-yl)carbamate], the concentration giving a half-maximal response (EC50) amounted to 15000 nM.

For `Cn1cc2c(c1C(=O)Nc1ccc(F)c(Cl)c1)CCC2N` (stereo not shown) [Compound 100, 4-Amino-N-(3-chloro-4-fluorophenyl)-2-methyl-2,4,5,6-tetrahydrocyclopenta[c]pyrrole-1-carboxamide], the concentration giving a half-maximal response (EC50) worked out at 3800 nM.

For `Cn1c(Cl)c2c(c1C(=O)Nc1ccc(F)c(Cl)c1)CCC2NC(=O)OCc1nc[nH]n1` (stereo not shown) [Compound 103, (1H-1,2,4-Triazol-3-yl)methyl (3-chloro-1-((3-chloro-4-fluorophenyl)carbamoyl)-2-methyl-2,4,5,6-tetrahydrocyclopenta[c]pyrrol-4-yl)carbamate], the concentration for a half-maximal effect (EC50) came out at 20 nM.

The same experiment, now with this note: read-out: DE-19 bDNA EC50; HepDE19 cells, Tet-free medium, 7 day-incubation, rcDNA measured by Quantigene 2.0 bDNA assay, top concentration 25 μM.
For the compound `Cn1cc2c(c1C(=O)Nc1ccc(F)c(Cl)c1)CCC2NC(=O)OCc1nn[nH]n1` (single isomer, unassigned) [Compound 149, (2H-Tetrazol-5-yl)methyl(1-((3-chloro-4-fluorophenyl)carbamoyl)-2-methyl-2,4,5,6-tetrahydrocyclopenta[c]pyrrol-4-yl)carbamate], the concentration giving a half-maximal response (EC50) was 1100 nM.

Consider `Cn1cc2c(c1C(=O)Nc1ccc(F)c(Cl)c1)CCC2NC(=O)OCc1nn[nH]n1` (single isomer, unassigned) [Compound 150, (2H-Tetrazol-5-yl)methyl(1-((3-chloro-4-fluorophenyl)carbamoyl)-2-methyl-2,4,5,6-tetrahydrocyclopenta[c]pyrrol-4-yl)carbamate], for which the EC50 is 6800 nM.
